Laboratory results from ChEMBL document CHEMBL3044879, “Design, synthesis, and preliminary in vitro and in vivo pharmacological evaluation of 4-{4-[2-(4-(2-substitutedquinoxalin-3-yl)piperazin-1-yl)ethyl]phenyl}thiazoles as atypical antipsychotic agents” (Med Chem Res, 2013).
Active and inactive are the calls of the source. No cut-off for these calls is given here.

Tests used:
[1] = molecular target: D(2) dopamine receptor (Rattus norvegicus) (UniProt P61169); assay: Displacement of [3H]spiperone from D2 receptor in Rattus norvegicus (rat) straitum membrane homogenates at 10 uM after 60 min by liquid scintillation counting analysis
Chain of D(2) dopamine receptor (Rattus norvegicus) (P61169 whole entry): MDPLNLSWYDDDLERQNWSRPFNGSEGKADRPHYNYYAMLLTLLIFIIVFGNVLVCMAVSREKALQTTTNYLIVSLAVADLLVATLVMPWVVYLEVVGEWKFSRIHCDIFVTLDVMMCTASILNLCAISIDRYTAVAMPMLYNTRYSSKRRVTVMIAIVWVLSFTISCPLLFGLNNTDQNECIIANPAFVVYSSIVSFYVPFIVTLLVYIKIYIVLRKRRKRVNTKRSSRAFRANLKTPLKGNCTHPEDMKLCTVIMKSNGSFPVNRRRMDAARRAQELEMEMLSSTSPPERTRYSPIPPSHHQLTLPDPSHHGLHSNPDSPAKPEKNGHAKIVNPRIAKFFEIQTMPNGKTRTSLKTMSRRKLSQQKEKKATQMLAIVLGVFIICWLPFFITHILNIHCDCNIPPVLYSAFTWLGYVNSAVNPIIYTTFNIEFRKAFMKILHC

Mus musculus [2] = assay: Selectivity ratio of inhibition of 5-HT2A receptor in Swiss albino Mus musculus (mouse) to inhibition of dopaminergic D2 receptor in Swiss albino Mus musculus (mouse) at 10 mg/kg, ip; type: functional; settings: route intraperitoneal
Mus musculus [3] = assay: Antagonist activity at mesolimbic dopaminergic D2 receptor in Swiss albino Mus musculus (mouse) assessed as inhibition of apomorphine-induced cage climbing behavior at 10 mg/kg, ip administered 1 hr prior to apomorphine challenge measured after 20 min relative to vehicle-treated control; type: functional; settings: route intraperitoneal
[4] = molecular target: 5-hydroxytryptamine receptor 2A (Rattus norvegicus) (UniProt P14842); assay: Displacement of [3H]ketanserin from 5-HT2A receptor in Rattus norvegicus (rat) cortex membrane homogenates up to 1 uM after 90 min by liquid scintillation counting analysis
Chain of 5-hydroxytryptamine receptor 2A (Rattus norvegicus) (P14842 whole entry): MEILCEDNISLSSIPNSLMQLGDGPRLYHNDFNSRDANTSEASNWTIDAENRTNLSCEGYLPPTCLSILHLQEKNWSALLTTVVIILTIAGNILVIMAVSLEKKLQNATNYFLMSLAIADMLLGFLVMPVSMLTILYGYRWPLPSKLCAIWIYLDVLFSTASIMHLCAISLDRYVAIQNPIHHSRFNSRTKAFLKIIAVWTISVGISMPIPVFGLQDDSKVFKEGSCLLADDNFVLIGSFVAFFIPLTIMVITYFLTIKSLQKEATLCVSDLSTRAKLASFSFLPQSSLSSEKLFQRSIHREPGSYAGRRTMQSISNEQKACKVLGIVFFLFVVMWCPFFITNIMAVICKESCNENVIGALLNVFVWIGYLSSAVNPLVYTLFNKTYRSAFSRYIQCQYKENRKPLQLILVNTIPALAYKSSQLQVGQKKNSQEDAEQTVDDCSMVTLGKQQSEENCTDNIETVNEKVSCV

[5] = molecular target: D(2) dopamine receptor (Rattus norvegicus) (UniProt P61169); assay: Displacement of [3H]spiperone from D2 receptor in Rattus norvegicus (rat) straitum membrane homogenates at 100 uM after 60 min by liquid scintillation counting analysis
[6] = molecular target: 5-hydroxytryptamine receptor 2A (Rattus norvegicus) (UniProt P14842); assay: Displacement of [3H]ketanserin from 5-HT2A receptor in Rattus norvegicus (rat) cortex membrane homogenates at 10 uM after 90 min by liquid scintillation counting analysis
Mus musculus [7] = assay: Antagonist activity at mesolimbic dopaminergic D2 receptor in Swiss albino Mus musculus (mouse) assessed as inhibition of apomorphine-induced cage climbing behavior at 10 mg/kg, ip administered 1 hr prior to apomorphine challenge measured after 30 min relative to vehicle-treated control; type: functional; settings: route intraperitoneal
[8] = molecular target: D(2) dopamine receptor (Rattus norvegicus) (UniProt P61169); assay: Displacement of [3H]spiperone from dopaminergic D2 receptor in Rattus norvegicus (rat) straitum membrane homogenates up to 1 uM after 60 min by liquid scintillation counting analysis
Mus musculus [9] = assay: Antagonist activity at nigrostriatal dopaminergic D2 receptor in Swiss albino Mus musculus (mouse) assessed as maximum average cataleptic time at 10 mg/kg, ip after 1 to 5 hr relative to vehicle-treated control; type: organism-based; parameters: dose 10 mg/kg, route intraperitoneal; settings: in vivo
Mus musculus [10] = assay: In vivo inhibition of dopaminergic D2 receptor in Swiss albino Mus musculus (mouse) at 10 mg/kg, ip relative to vehicle-treated control; type: functional; settings: route intraperitoneal
Mus musculus [11] = assay: Antagonist activity at central serotonergic 5-HT2A receptor in Swiss albino Mus musculus (mouse) assessed as inhibition of quipazine meleate-induced head twiches at 10 mg/kg, ip administered 1 hr prior to quipazine meleate challenge measured after 30 to 40 min relative to vehicle-treated control; type: functional; settings: route intraperitoneal
Mus musculus [12] = assay: In vivo inhibition of 5-HT2A receptor in Swiss albino Mus musculus (mouse) at 10 mg/kg, ip relative to vehicle-treated control; type: functional; settings: route intraperitoneal
Mus musculus [13] = assay: Antagonist activity at mesolimbic dopaminergic D2 receptor in Swiss albino Mus musculus (mouse) assessed as inhibition of apomorphine-induced cage climbing behavior at 10 mg/kg, ip administered 1 hr prior to apomorphine challenge measured after 10 min relative to vehicle-treated control; type: functional; settings: route intraperitoneal
Mus musculus [14] = assay: Antagonist activity at mesolimbic dopaminergic D2 receptor in Swiss albino Mus musculus (mouse) assessed as inhibition of apomorphine-induced cage climbing behavior at 0.6 mg/kg, ip administered 1 hr prior to apomorphine challenge measured after 10 min relative to vehicle-treated control; type: functional; settings: route intraperitoneal
Mus musculus [15] = assay: Antagonist activity at central serotonergic 5-HT2A receptor in Swiss albino Mus musculus (mouse) assessed as inhibition of quipazine meleate-induced head twiches at 0.6 mg/kg, ip administered 1 hr prior to quipazine meleate challenge measured after 30 to 40 min relative to vehicle-treated control; type: functional; settings: route intraperitoneal
Mus musculus [16] = assay: Antagonist activity at nigrostriatal dopaminergic D2 receptor in Swiss albino Mus musculus (mouse) assessed as maximum average cataleptic time at 0.6 mg/kg, ip after 1 to 5 hr relative to vehicle-treated control; type: organism-based; parameters: dose 0.6 mg/kg, route intraperitoneal; settings: in vivo
Mus musculus [17] = assay: Antagonist activity at mesolimbic dopaminergic D2 receptor in Swiss albino Mus musculus (mouse) assessed as inhibition of apomorphine-induced cage climbing behavior at 0.6 mg/kg, ip administered 1 hr prior to apomorphine challenge measured after 30 min relative to vehicle-treated control; type: functional; settings: route intraperitoneal
Mus musculus [18] = assay: Antagonist activity at mesolimbic dopaminergic D2 receptor in Swiss albino Mus musculus (mouse) assessed as inhibition of apomorphine-induced cage climbing behavior at 0.6 mg/kg, ip administered 1 hr prior to apomorphine challenge measured after 20 min relative to vehicle-treated control; type: functional; settings: route intraperitoneal

Row | inhibition [1] | inhibition [4] | inhibition [5] [%] | inhibition [6] [%] | inhibition [8] | SMILES | Selectivity ratio (Mus musculus [2]) | inhibition in vivo at 10 mg/kg (Mus musculus [3]) [%] | inhibition in vivo at 10 mg/kg (Mus musculus [7]) [%] | Time (Mus musculus [9]) [s] | Imax (Mus musculus [10]) [%] | inhibition in vivo at 10 mg/kg (Mus musculus [11]) [%] | inhibition in vivo at 10 mg/kg (Mus musculus [12]) [%] | inhibition in vivo at 10 mg/kg (Mus musculus [13]) [%] | inhibition in vivo at 0.6 mg/kg (Mus musculus [14]) [%] | inhibition in vivo at 0.6 mg/kg (Mus musculus [15]) [%] | Time (Mus musculus [16]) [s] | inhibition in vivo at 0.6 mg/kg (Mus musculus [17]) [%] | inhibition in vivo at 0.6 mg/kg (Mus musculus [18]) [%]
1 | inactive | inactive | 40 | 58 | inactive | CNc1nc(-c2ccc(CCN3CCN(c4nc5ccccc5nc4OC)CC3)cc2)cs1 | 0.6 | 85 | 65 | 10.67 | 85 | 51 | 51 | 60 | – | – | – | – | –
2 | inactive | inactive | 82 | 68 | inactive | COc1nc2ccccc2nc1N1CCN(CCc2ccc(-c3csc(C)n3)cc2)CC1 | 0.7294 | 70 | 65 | 6.25 | 85 | 62 | 62 | 85 | – | – | – | – | –
3 | – | – | – | – | – | Cc1nc2n(c(=O)c1CCN1CCC(c3noc4cc(F)ccc34)CC1)CCCC2 [RISPERIDONE] | 1.0989 | – | – | – | 91 | – | 100 | – | 91 | 100 | 2.54 | 90 | 91
4 | inactive | inactive | 30 | 63 | inactive | Cc1nc(-c2ccc(CCN3CCN(c4cnc5ccccc5n4)CC3)cc2)cs1 | 0.9059 | 55 | 85 | 5.17 | 85 | 77 | 77 | 75 | – | – | – | – | –
